Assay results taken from patent US5143911A, “Antibiotic C-3 di-hydroxyphenyl substituted cephalosporin compounds, compositions and method of use thereof” (Bristol-Myers Squibb Company, priority 1990, dated 1992).
Converted amounts (≈) assume the structure as drawn. Where two headings read alike, the source gives them in different places.

What was measured:
E. coli Juhl [1] = settings: Escherichia coli, in Mus musculus, im, read-out: PD50
B. fragilis A 22021 = assay: In vitro activity against anaerobes (MIC), two-fold serial agar dilution, GAM agar; assay type: cell-based; settings: Bacteroides fragilis, A22021, Gn, Beta-Lactamase(-)
[2] = test system: Cephalothin (CET)sensitive E. coli(2), Kl. pneumoniae(1) and Pr. mirabilis(2); assay: MIC, two-fold serial agar dilution, Mueller-Hinton agar (geometric mean, group Gn-Ia); assay type: cell-based; settings: 5 strains
Protocol: (§1) For a primary evaluation of some representative compounds of this invention, minimum inhibitory concentrations (MIC's) were determined against 32 strains of test organisms by two-fold serial agar dilution method in Mueller-Hinton agar.
GnIa: Cephalothin (CET)sensitive E. coli(2)*, Kl. pneumoniae(1) and Pr.

E. coli 255 = settings: Escherichia coli, 255, 18 h, pH 7.2
P. aeruginosa KKA 19 = settings: Pseudomonas aeruginosa, KKA19, 18 h, pH 7.2
P. aeruginosa IPM-9 = settings: Pseudomonas aeruginosa, IPM9, 18 h, pH 7.2
B. fragilis A 22534 = assay: In vitro activity against anaerobes (MIC), two-fold serial agar dilution, GAM agar; assay type: cell-based; settings: Bacteroides fragilis, A22534, Gn, Beta-Lactamase(+)
S. aureus 4-1015 (MRSA) = settings: Staphylococcus aureus, 18 h, pH 7.2
M. morgani 1510/9 = settings: 18 h, pH 7.2
C. freundii GN 7391 = settings: Citrobacter freundii, GN7391, 18 h, pH 7.2
C. difficile A 21675 = assay: In vitro activity against anaerobes (MIC); assay type: cell-based; settings: Clostridioides difficile, A21675, Gp, Clindamycin-resistant
P. aeruginosa IPM-8 = settings: Pseudomonas aeruginosa, IPM8, 18 h, pH 7.2
S. aureus Smith [3] = settings: Staphylococcus aureus, 18 h, pH 7.2
B. subtilis PCI 219 = settings: Bacillus subtilis, PCI219, 18 h, pH 7.2
P. cepacia No. 651 = settings: Burkholderia cepacia, NO.651, 18 h, pH 7.2
S. epidermidis 11-1230 = settings: Staphylococcus epidermidis, 111230, 18 h, pH 7.2
K. pneumoniae PCI 602 = settings: Klebsiella pneumoniae, PCI602, 18 h, pH 7.2
E. cloacae IPM-12 = settings: Enterobacter cloacae, IPM12, 18 h, pH 7.2
S. aureus IPM-24 (MRSA) = settings: Staphylococcus aureus, 18 h, pH 7.2
B. fragilis A 22693 = assay: In vitro activity against anaerobes (MIC), two-fold serial agar dilution, GAM agar; assay type: cell-based; settings: Bacteroides fragilis, A22693, Gn, Beta-Lactamase(-)
X. maltophilia GN 12873 = settings: Stenotrophomonas maltophilia, GN12873, 18 h, pH 7.2
[4] = test system: M. morganii(1), Ent. cloacae(2), and Ser. marcescens(2); assay: MIC, two-fold serial agar dilution, Mueller-Hinton agar (geometric mean, group Gn-II); assay type: cell-based; settings: 5 strains
Protocol: as §1
GnII: M. morganii(1), Ent. cloacae(2), and Ser. marcescens(2)

E. coli Juhl [5] = assay: MIC against the infecting organism (Table 2); settings: Escherichia coli
P. cepacia A21213 = assay type: cell-based; settings: Burkholderia cepacia, pH 7.2, 32° C. 18 hr, 10^6 cells/ml
P. acnes A 21933 = assay: In vitro activity against anaerobes (MIC); assay type: cell-based; settings: Cutibacterium acnes, A21933, Gp
P. vulgaris IPM-13 = assay type: cell-based; settings: Proteus vulgaris, IPM13, pH 7.2, 32° C. 18 hr, 10^6 cells/ml
PCresistant S. aureus = assay: MIC, two-fold serial agar dilution, Mueller-Hinton agar (geometric mean, group Gp-Ib); assay type: cell-based; settings: Staphylococcus aureus, penicillin-resistant S. aureus, 5 strains
Protocol: as §1
GpIb: PCresistant S. aureus

B. fragilis A 22053 = assay: In vitro activity against anaerobes (MIC), two-fold serial agar dilution, GAM agar; assay type: cell-based; settings: Bacteroides fragilis, A22053, Gn, Beta-Lactamase(-)
P. mirabilis IFO-2849 = settings: Proteus mirabilis, IFO2849, 18 h, pH 7.2
E. faecium A24817 = assay type: cell-based; settings: Enterococcus faecium, pH 7.2, 32° C. 18 hr, 10^6 cells/ml
S. aureus Smith [6] = assay: MIC against the infecting organism (Table 2); settings: Staphylococcus aureus
B. fragilis A 21916 = assay: In vitro activity against anaerobes (MIC), two-fold serial agar dilution, GAM agar; assay type: cell-based; settings: Bacteroides fragilis, A21916, Gn, Beta-Lactamase(-)
S. aureus 209P = settings: Staphylococcus aureus, 18 h, pH 7.2

**Q.** What does the source list for CO/N=C(\C(=O)NC1C(=O)N2C(C(=O)O)=C(/C=C/COC(=O)c3ccc(O)c(O)c3)CS[C@H]12)c1csc(N)n1 (stereo partly drawn) [Ia, 7-[(Z)-2-(2-Aminothiazol-4-yl)-2-methoxyiminoacetamido]-3-[(E)-3-(3,4-dihydroxybenzoyloxy)-1-propen-1-yl]-3-cephem-4-carboxylic acid]?
**A.** ED50 (E. coli Juhl [1]): 0.05 mg/kg; MIC (B. fragilis A 22021): 0.2 µg/mL (≈ 0.347 µM); MIC [2]: 0.017 µg/mL (≈ 0.0295 µM); MIC (E. coli 255): 0.2 µg/mL (≈ 0.347 µM); MIC (P. aeruginosa KKA 19): 50 µg/mL (≈ 86.9 µM); MIC (P. aeruginosa IPM-9): 6.3 µg/mL (≈ 10.9 µM); MIC (B. fragilis A 22534): > 50 µg/mL; MIC (S. aureus 4-1015 (MRSA)): 12.5 µg/mL (≈ 21.7 µM); MIC (M. morgani 1510/9): 0.05 µg/mL (≈ 0.0869 µM); MIC (C. freundii GN 7391): 12.5 µg/mL (≈ 21.7 µM); MIC (C. difficile A 21675): 12.5 µg/mL (≈ 21.7 µM); MIC (P. aeruginosa IPM-8): 6.3 µg/mL (≈ 10.9 µM); MIC (S. aureus Smith [3]): 1.6 µg/mL (≈ 2.78 µM); MIC (B. subtilis PCI 219): 0.2 µg/mL (≈ 0.347 µM); MIC (P. cepacia No. 651): 12.5 µg/mL (≈ 21.7 µM); MIC (S. epidermidis 11-1230): 3.1 µg/mL (≈ 5.39 µM); MIC (K. pneumoniae PCI 602): < 0.0063 µg/mL; MIC (E. cloacae IPM-12): > 100 µg/mL; MIC (S. aureus IPM-24 (MRSA)): > 100 µg/mL; MIC (B. fragilis A 22693): 0.8 µg/mL (≈ 1.39 µM); MIC (X. maltophilia GN 12873): 50 µg/mL (≈ 86.9 µM); MIC [4]: 0.46 µg/mL (≈ 0.799 µM); MIC (E. coli Juhl [5]): 0.1 µg/mL (≈ 0.174 µM); MIC (P. cepacia A21213): > 100 µg/mL; MIC (P. acnes A 21933): 0.4 µg/mL (≈ 0.695 µM); MIC (P. vulgaris IPM-13): > 100 µg/mL; MIC (PCresistant S. aureus): 1.6 µg/mL (≈ 2.78 µM); MIC (B. fragilis A 22053): 0.8 µg/mL (≈ 1.39 µM); MIC (P. mirabilis IFO-2849): 0.05 µg/mL (≈ 0.0869 µM); MIC (E. faecium A24817): > 100 µg/mL; MIC (S. aureus Smith [6]): 1.6 µg/mL (≈ 2.78 µM); MIC (B. fragilis A 21916): 1.6 µg/mL (≈ 2.78 µM); MIC (S. aureus 209P): 3.1 µg/mL (≈ 5.39 µM)
